Patent US9512074B2, “Radiolabeled inhibitors of the amino acid transporters ASCT1 and ASCT2” (The University of Montana, priority 2011, dated 2016)

Tests used:
Human ASCT1 = target: T1, Human ASCT1 (Homo sapiens, UniProt P43007); test: Inhibition of anion leak current, two-electrode voltage clamp in Xenopus oocytes expressing human ASCT1; type: cell-based; conditions: for Ki: Xenopus oocytes expressing human ASCT1, held at −20 mV, * = actual Ki, others Ki estimates, read-out: Ki (μM) ACST1
T1 construct: expressed in transfected cells; host or cells: Xenopus laevis oocytes (cRNA microinjection)
T1 sequence (P43007 1-532): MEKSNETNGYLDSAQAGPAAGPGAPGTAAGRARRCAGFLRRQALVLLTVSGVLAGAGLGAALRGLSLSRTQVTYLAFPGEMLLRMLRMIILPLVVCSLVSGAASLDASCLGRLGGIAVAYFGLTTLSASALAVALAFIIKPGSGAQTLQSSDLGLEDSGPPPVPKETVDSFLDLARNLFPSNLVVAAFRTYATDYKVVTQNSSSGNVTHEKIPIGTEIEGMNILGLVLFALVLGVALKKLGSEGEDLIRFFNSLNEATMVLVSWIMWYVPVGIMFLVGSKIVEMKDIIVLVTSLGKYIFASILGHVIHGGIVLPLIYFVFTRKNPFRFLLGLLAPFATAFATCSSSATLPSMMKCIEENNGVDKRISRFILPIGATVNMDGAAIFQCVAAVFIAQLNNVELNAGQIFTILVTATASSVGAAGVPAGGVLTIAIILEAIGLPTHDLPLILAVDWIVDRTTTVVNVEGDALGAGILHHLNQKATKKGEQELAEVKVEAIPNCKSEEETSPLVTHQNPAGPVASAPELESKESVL
Protocol: (§1) Human ASCT1 and murine ASCT2 cRNA were microinjected in stage V-VI oocytes. Uncoupled anion currents associated with the transport of substrate were recorded 3-5 days later as previously described (Zerangue & Kavanaugh, 1996). Recording solution contained 50 mM NaCl, 50 mM NaSCN, 2 mM KCl, 1 mM MgCl2, 1.8 mM CaCl2, and 5 mM HEPES (pH 7.4). Using two-electrode voltage clamp (TEVC), oocytes were held at −20 mV. Microelectrodes were filled with 3M KCl and had resistances from 1 to 3 MΩ. Recordings were performed at 22° C. with a Geneclamp 500 amplifier connected to a PowerLab 2/26 (AD instruments). The digital output was interfaced to a MacBook Pro (Macintosh) using Chart v7.1.2 software. The currents were low-pass filtered at 10 Hz and acquired at 20 Hz. Data was analyzed offline and modeling and fitting of substrate concentration-dependence of the currents was performed with Kaleidagraph software (v 4.04). The concentration dependent percent block of the anion leak or substrate activation of the anion current were fit with the Michaelis-Menten equation (Ianion=Imax×[Drug]/(Km+[Drug])) to define the Ki of inhibition or the apparent affinity (Km) of transport, respectively.

murine ASCT2 = target: T2, murine ASCT2 (Mus musculus, UniProt P51912); test: Inhibition of anion leak current, two-electrode voltage clamp in Xenopus oocytes expressing mouse ASCT2; type: cell-based; conditions: for Ki: Xenopus oocytes expressing mouse ASCT2, held at −20 mV, * = actual Ki, others Ki estimates
T2 construct: expressed in transfected cells; host or cells: Xenopus laevis oocytes (cRNA microinjection)
T2 sequence (P51912 1-553): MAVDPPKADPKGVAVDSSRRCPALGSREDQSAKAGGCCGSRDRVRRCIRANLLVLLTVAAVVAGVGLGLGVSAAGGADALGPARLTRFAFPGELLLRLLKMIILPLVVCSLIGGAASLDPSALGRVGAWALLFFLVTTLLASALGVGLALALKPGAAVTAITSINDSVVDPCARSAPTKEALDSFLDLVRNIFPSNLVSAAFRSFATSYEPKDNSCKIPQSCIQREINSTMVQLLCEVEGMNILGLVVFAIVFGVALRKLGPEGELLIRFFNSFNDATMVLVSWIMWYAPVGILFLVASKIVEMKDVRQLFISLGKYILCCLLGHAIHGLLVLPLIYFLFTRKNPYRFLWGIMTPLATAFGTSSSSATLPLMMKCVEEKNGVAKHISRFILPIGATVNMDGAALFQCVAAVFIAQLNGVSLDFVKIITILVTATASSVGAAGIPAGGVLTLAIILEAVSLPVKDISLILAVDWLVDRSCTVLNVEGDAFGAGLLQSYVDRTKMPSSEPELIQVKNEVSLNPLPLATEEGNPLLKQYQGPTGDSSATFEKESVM
Protocol: as §1

[1] = 300 μM, −20 mV, opposite the current induced by substrate

O=C(O)[C@H]1NC[C@@H](Oc2ccccc2)C1O (stereo in doubt) [CSE118, (2S,3S,4R)-3-hydroxy-4-phenoxy-proline]
Ki (Human ASCT1): 150 µM
Ki (murine ASCT2): 141 µM

C[C@]1(O)CN[C@H](C(=O)O)C1 [CSE95, cis-4-methyl-trans-4-hydroxy-L-proline]
Ki (Human ASCT1): > 500 µM
Ki (murine ASCT2): 926 µM

C[C@@]1(O)CN[C@H](C(=O)O)C1 [CSE96, cis-4-hydroxy-trans-4-methyl-L-proline]
Ki (Human ASCT1): > 500 µM
Ki (murine ASCT2): 1080 µM

O=C(O)[C@H]1NC[C@H](O)[C@H]1c1ccccc1 [CSE103, (2S,3S,4R)-3-phenyl-4-hydroxy-proline]
Ki (Human ASCT1): 332 µM
Ki (murine ASCT2): 1130 µM

O=C(O)[C@H]1NC[C@@H](c2ccccc2)[C@@H]1O [CSE104, (2S,3S,4R)-3-hydroxy-4-phenyl-proline]
Ki (Human ASCT1): > 500 µM
Ki (murine ASCT2): > 500 µM

C[C@H]1[C@@H](C(=O)O)NC[C@@H]1O [CSE109]
Ki (Human ASCT1): 564 µM
Ki (murine ASCT2): 922 µM

C[C@@H]1CN[C@H](C(=O)O)[C@H]1O [CSE110]
Ki (Human ASCT1): 1050 µM
Ki (murine ASCT2): 1150 µM

O=C(O)[C@@H]1C[C@H](O)CN1 [CSE111]
Ki (Human ASCT1): 805 µM
Ki (murine ASCT2): 872 µM

O=C(O)[C@H]1NC[C@H](OCc2ccccc2)[C@H]1O [CSE113, cis-3-hydroxy-trans-4-benzyloxy-L-proline]
Ki (Human ASCT1): 493 µM
Ki (murine ASCT2): 828 µM

CO[C@@H]1CN[C@H](C(=O)O)[C@H]1O [CSE115, trans-3-hydroxy-cis-4-methoxy-L-proline]
Ki (Human ASCT1): 214 µM
Ki (murine ASCT2): 235 µM

O=C(O)[C@H]1NC[C@H](O)[C@H]1Oc1ccccc1 [CSE117, (2S,3S,4S)-3-phenoxy-4-hydroxy-proline]
Ki (Human ASCT1): 594 µM
Ki (murine ASCT2): 502 µM

O=C(O)[C@H]1NC[C@@H](OCc2ccccc2)[C@@H]1O [CSE121, trans-3-hydroxy-cis-4-benzyloxy-L-proline]
Ki (Human ASCT1): 39 µM
block of leak current in mASCT2 (FIG. 4) (murine ASCT2; [1]): blocking a leak current
Ki (murine ASCT2): 69 µM

CC(C)O[C@@H]1CN[C@H](C(=O)O)[C@H]1O [CSE122]
block of leak current in hASCT1 (FIG. 4) (Human ASCT1; [1]): blocking a leak current
Ki (Human ASCT1): 237 µM
Ki (murine ASCT2): 268 µM

CO[C@H]1CN[C@H](C(=O)O)[C@@H]1O [CSE124]
Ki (Human ASCT1): 481 µM
Ki (murine ASCT2): 600 µM

CC(C)O[C@H]1CN[C@H](C(=O)O)[C@@H]1O [CSE127, cis-3-hydroxy-trans-4-isopropoxy-L-proline]
Ki (Human ASCT1): > 500 µM
Ki (murine ASCT2): > 500 µM

O=C(O)[C@H]1NC[C@@H](OCc2cccc(Oc3ccccc3)c2)[C@@H]1O [CSE130]
Ki (Human ASCT1): 13 µM
Ki (murine ASCT2): 10 µM

O=C(O)[C@H]1NC[C@@H](OCc2ccc(-c3ccccc3)cc2)[C@@H]1O [CSE131, (2S,3R,4R)-3-hydroxy-4-o-methyl-p-biphenyl-proline]
Ki (Human ASCT1): 0.31 µM
Ki (murine ASCT2): 0.24 µM

O=C(O)[C@H]1NC[C@@H](OCc2cccc3ccccc23)[C@@H]1O [CSE132]
Ki (Human ASCT1): ~10 µM
Ki (murine ASCT2): ~10 µM
